Source: patent US20060287383A1, “Substance exhibiting antidepressant property” (priority 2003, published 2006)

Key:
white outbred male rats = assay: reserpine depression method according to Bernardi; type: in vivo; settings: for reduction of the diarrhea intensity / reduction of the intensity of ptosis: versus reserpine; for orientation and motion activity: reserpinized rats; for Diarrhea / Ptosis: 4-point scale; for Number of pulses in activity meter: three minutes, Varimex
Source text: The method of reserpine depression according to Bernardi (Bernardi D., Paglialunga S., Jori A. Peripheral and central components in the hyperthermic effect of desipramine in rezerpinized rats//J. Pharm. Pharmacol., 1968, vol. 20, p. 204-209) is one of the basic models for assessing antidepressants in studies of new pharmaceuticals. The studies have been conducted with white outbred male rats having the weight from 200 to 240 grams. Reserpine has been introduced intraperitoneally, as a single dose of 2.5 mg/kg 2 hours before the introduction of phenotropyl (intraperitoneally, single doses of 25, 50, 100 and 200 mg/kg) and 3 hours before starting the study. The animals from the control group have received intraperitoneally distilled water only in the same volumes as the animals from the experimental groups. The antidepressant activity of phenotropyl has been assessed by its effect on sedation (suppression of the orientation and motion activity), intensity of ptosis and diarrhea, which have been caused by reserpine in the rats.
The orientation and motion activity of the animals has been studied for three minutes in a special activity meter (Varimex). The intensity of ptosis and diarrhea has been assessed on the standard 4-point scale (Mashkovsky M. D., Andreeva N. I., Polezhaeva A. I. Pharmacology of Antidepressants. Moscow, Medicine Publishers, 1983, p. 194-199).

[1] = test system: patients having depressive illnesses; assay: clinical study, Hamilton rating scale for depressive illness; type: in vivo, human
Description: The Hamilton rating scale for primary depressive illness (Hamilton M. Development of a rating scale for primary depressive illness//Br J Soc Clin Psychol. 1967 December;6(4):278-96) is one of the most widely used scales for assessing depression in the clinical practice.
The material for clinical studies has comprised two homogenous groups of patients having depressive illnesses (40 persons) aged 20-42, out of which 20 patients have taken amitriptyline in the daily dose of 75 mg (25 mg three times a day), and 20 patients have taken phenotropyl in the daily dose of 100 mg as a single dose in the morning time. For a comparative study of the medications antidepressant activity the patients have been enlisted for the study according to the following criteria: the informed consent is available, a light or moderate depressive episode (F32.0 ? F32.1 according to MCB-10) is present, the total score under the Hamilton rating scale is not lower than 18, no contraindications to taking amitriptyline and phenotropyl. The patients have been relatively uniformly assigned to the said groups according to meaningful factors, such as sex and age, time for which the condition exists and syndrome characteristics. The condition existence time varied from 1 to 2 years. The therapy efficiency has been assessed on the basis of a degree of reduction of the total score under the Hamilton scale, namely: full effect—reduction by more than 50%; partial reduction—from 25 to 50%; no effect—reduction by less than 25%. The condition of the patients has been assessed during the background studies and at each 7th day of the therapy for the whole 6 weeks of the therapy. In total, seven examinations have been carried out. The comparative data on the general efficiency pf the medications, as given in Table 5, evidence a rather quick reduction of the depressive illness psychopathological symptoms in the process of administering phenotropyl and amitriptyline. However, the antidepressant effect of phenotropyl has been more pronounced on the 7th and 14th days of the therapy. The full reduction has been attained in 25% and 40% of the patients, respectively. […] From the 28th day of the therapy the number of the patients experiencing the maximum effect has not been changed either on the 35th or the 42nd days of the therapy. Out of 20% of the patients experiencing a partial reduction of the depressive symptoms, 15% have been patients with the reduction from 25% to 50%, and 5%—patients with the reduction by less than 25%.

[2] = reserpine 2.5 mg/kg + phenotropyl 25 mg/kg intraperitoneally
[3] = reserpine 2.5 mg/kg + phenotropyl 50 mg/kg intraperitoneally
[4] = reserpine 2.5 mg/kg + phenotropyl 100 mg/kg intraperitoneally
[5] = reserpine 2.5 mg/kg + phenotropyl 200 mg/kg intraperitoneally

NC(=O)CN1CC(c2ccccc2)CC1=O (centres unmarked) [Phenotropyl, N-carbamoyl-methyl-4-phenyl-2-pyrrolidone]
reduction of the diarrhea intensity (white outbred male rats; phenotropyl 50 mg/kg): 1.7 times | reduction of the intensity of ptosis (white outbred male rats; phenotropyl 50 mg/kg): 1.4 times | reduction of the diarrhea intensity (white outbred male rats; phenotropyl 100 mg/kg): 2.4 times | reduction of the diarrhea intensity (white outbred male rats; phenotropyl 200 mg/kg): 2.2 times | reduction of the intensity of ptosis (white outbred male rats; phenotropyl 100 and 200 mg/kg): 1.8 times | orientation and motion activity (white outbred male rats; phenotropyl doses of 25 and 50 mg/kg): increased | orientation and motion activity (white outbred male rats; phenotropyl doses of 100 and 200 mg/kg): reliably corresponds to the control level | Diarrhea (white outbred male rats; [2]): 2.0 ± 0.1 points | Ptosis (white outbred male rats; [2]): 3.0 ± 0.2 points | Number of pulses in activity meter (white outbred male rats; [2]): 20.3 ± 1.4 | Diarrhea (white outbred male rats; [3]): 1.4 ± 0.2 points | Ptosis (white outbred male rats; [3]): 2.5 ± 0.2 points | Number of pulses in activity meter (white outbred male rats; [3]): 22.8 ± 1.2 | Diarrhea (white outbred male rats; [4]): 1.0 ± 0.2 points | Ptosis (white outbred male rats; [4]): 2.0 ± 0.2 points | Number of pulses in activity meter (white outbred male rats; [4]): 30.6 ± 2.4 | Diarrhea (white outbred male rats; [5]): 1.1 ± 0.2 points | Ptosis (white outbred male rats; [5]): 2.0 ± 0.1 points | Number of pulses in activity meter (white outbred male rats; [5]): 33.9 ± 3.2 | sedative and cholinergic effects ([1]; 100 mg daily, 6 weeks of therapy): no cases of sedative and cholinergic effects have been recorded | time at which full reduction is attained in 70% and 80% of the patients, compared with amitriptyline ([1]; 100 mg daily, 21st and 28th days of the therapy): two weeks earlier than for the amitriptyline therapy | patients (%) with reduction of total Hamilton score 25-49 ([1]; 7th therapy day, 100 mg daily): 25% | patients (%) with reduction of total Hamilton score <25 ([1]; 7th therapy day, 100 mg daily): 75% | patients (%) with reduction of total Hamilton score ≧50 ([1]; 7th therapy day, 100 mg daily): 0% | patients (n) with reduction of total Hamilton score 25-49 ([1]; 7th therapy day, 100 mg daily): 5 | patients (n) with reduction of total Hamilton score <25 ([1]; 7th therapy day, 100 mg daily): 15 | patients (n) with reduction of total Hamilton score ≧50 ([1]; 7th therapy day, 100 mg daily): 0 | patients (%) with reduction of total Hamilton score ≧50 ([1]; 7th therapy day, 100 mg daily, listed as phenotropyl): 25% | patients (%) with reduction of total Hamilton score 25-49 ([1]; 14th therapy day, 100 mg daily): 30% | patients (%) with reduction of total Hamilton score <25 ([1]; 14th therapy day, 100 mg daily): 30% | patients (%) with reduction of total Hamilton score ≧50 ([1]; 14th therapy day, 100 mg daily): 40% | patients (n) with reduction of total Hamilton score 25-49 ([1]; 14th therapy day, 100 mg daily): 6 | patients (n) with reduction of total Hamilton score <25 ([1]; 14th therapy day, 100 mg daily): 6 | patients (n) with reduction of total Hamilton score ≧50 ([1]; 14th therapy day, 100 mg daily): 8 | patients (%) with reduction of total Hamilton score 25-49 ([1]; 21st therapy day, 100 mg daily): 10% | patients (%) with reduction of total Hamilton score <25 ([1]; 21st therapy day, 100 mg daily): 20% | patients (%) with reduction of total Hamilton score ≧50 ([1]; 21st therapy day, 100 mg daily): 70% | patients (n) with reduction of total Hamilton score 25-49 ([1]; 21st therapy day, 100 mg daily): 2 | patients (n) with reduction of total Hamilton score <25 ([1]; 21st therapy day, 100 mg daily): 4 | patients (n) with reduction of total Hamilton score ≧50 ([1]; 21st therapy day, 100 mg daily): 14 | patients (%) with reduction of total Hamilton score 25-49 ([1]; 28th therapy day, 100 mg daily): 15% | patients (%) with reduction of total Hamilton score <25 ([1]; 28th therapy day, 100 mg daily): 5% | patients (%) with reduction of total Hamilton score ≧50 ([1]; 28th therapy day, 100 mg daily): 80% | patients (n) with reduction of total Hamilton score 25-49 ([1]; 28th therapy day, 100 mg daily): 3 | patients (n) with reduction of total Hamilton score <25 ([1]; 28th therapy day, 100 mg daily): 1 | patients (n) with reduction of total Hamilton score ≧50 ([1]; 28th therapy day, 100 mg daily): 16 | patients (%) with reduction of total Hamilton score 25-49 ([1]; 35th therapy day, 100 mg daily): 15% | patients (%) with reduction of total Hamilton score <25 ([1]; 35th therapy day, 100 mg daily): 5% | patients (%) with reduction of total Hamilton score ≧50 ([1]; 35th therapy day, 100 mg daily): 80% | patients (n) with reduction of total Hamilton score 25-49 ([1]; 35th therapy day, 100 mg daily): 3 | patients (n) with reduction of total Hamilton score <25 ([1]; 35th therapy day, 100 mg daily): 1 | patients (n) with reduction of total Hamilton score ≧50 ([1]; 35th therapy day, 100 mg daily): 16 | patients (%) with reduction of total Hamilton score 25-49 ([1]; 42nd therapy day, 100 mg daily): 15% | patients (%) with reduction of total Hamilton score <25 ([1]; 42nd therapy day, 100 mg daily): 5% | patients (%) with reduction of total Hamilton score ≧50 ([1]; 42nd therapy day, 100 mg daily): 80% | patients (n) with reduction of total Hamilton score 25-49 ([1]; 42nd therapy day, 100 mg daily): 3 | patients (n) with reduction of total Hamilton score <25 ([1]; 42nd therapy day, 100 mg daily): 1 | patients (n) with reduction of total Hamilton score ≧50 ([1]; 42nd therapy day, 100 mg daily): 16 | tolerance and withdrawal syndrome ([1]; course administration): does not induce tolerance and the withdrawal syndrome
